Our source for the IC50 values is US11306084B2, “Integrin antagonists” (Saint Louis University, priority 2016, dated 2022).

Counter-ions that a name gives are not always drawn.

Assay type in all cases: binding
In experiment [1] the target is T1, Recombinant human integrin ανβ1 (Homo sapiens, UniProt P05556+P06756).
T1 construct: purchased R&D Systems 6579-AV
The experiment in a line: Solid Phase Receptor Assay (SPRA) for ανβ1 function. Particulars: plate-bound human fibronectin; read-out: αvβ1 SPRA IC50. As for the experimental part: B. Solid Phase Receptor Assay (SPRA) for ανβ1 Function
Wells were washed 3 times with 150 μL TBS+ and then 150 μL of blocking buffer (TBS+ with 1% bovine serum albumin, Sigma A7906) was added. The plate was incubated for 1 hr at 37° C. and then washed 3× with TBS+ buffer. […] Compounds were diluted to 20 μM and 1 μL was added to each well of the plate according to a standard template with each sample repeated in triplicate. After incubation for two hours at room temperature, the plate was washed 3 with 150 μL of TBS+ buffer. To each well, 50 μL of biotinylated anti-αν antibody (R&D Systems, BAF1219) at 1 μg/mL in TBS+/0.1% BSA were added and the plate covered and incubated for 1 hr at room temperature. After washing the plate 3× with 150 μL of TBS+ buffer, 50 μL of streptavidin-conjugated horseradish peroxidase (R&D Systems, DY998) diluted in TBS+ blocking buffer were added to the wells and the plate incubated for 20 min at room temperature. The plate was washed 3× with TBS+ buffer followed by 50 μL of TMB substrate (Sigma, T4444) added to each well in the dark and the plate incubated for 25 min at room temperature. 25 μL of 1.0 M phosphoric acid was added as a stop solution and the plates were read at 450 nm using a Spectramax plate reader.

For experiment [2], the target named is T2, Recombinant human integrin ανβ3 (Homo sapiens, UniProt P05106+P06756).
T2 construct: purchased R&D Systems 3050-AV
The experiment in a line: Solid Phase Receptor Assay (SPRA) for ανβ3 function. The settings on record: plate-bound human vitronectin; read-out: αvβ3 SPRA IC50. As for the experimental part: C. Solid Phase Receptor Assay (SPRA) for ανβ3 Function
Wells were washed 3 times with 150 μL TBS+ and then 150 μL of blocking buffer (TBS+ with 1% bovine serum albumin, Sigma A7906) was added. The plate was incubated for 1 hr at 37° C. and then washed 3× with TBS+ buffer. […] Compounds were diluted to 20 μM and then 1 μL was added to each well of the plate according to a standard template with each sample repeated in triplicate. After incubation for two hours at room temperature, the plate was washed 3× with 150 μL of TBS+ buffer. To each well, 50 μL of biotinylated anti-αν antibody (R&D Systems, BAF1219) at 0.5 μg/mL in TBS+/0.1% BSA were added and the plate covered and incubated for 1 hr at room temperature. After washing the plate 3× with 150 μL of TBS+ buffer, 50 μL of streptavidin-conjugated horseradish peroxidase (R&D Systems, DY998) diluted in TBS+ blocking buffer were added to the wells and the plate incubated for 20 min at room temperature. The plate was washed 3× with TBS+ buffer followed by 50 μL of TMB substrate (Sigma, T4444) added to each well in the dark and the plate was incubated for 25 min at room temperature. 25 μL of 1.0 M phosphoric acid was added as a stop solution and the plates were read at 450 nm using a Spectramax plate reader.

Experiment [3] addresses T3, Recombinant human integrin ανβ5 (Homo sapiens, UniProt P06756+P18084).
T3 construct: purchased R&D Systems 2528-AV
Briefly: Solid Phase Receptor Assay (SPRA) for ανβ5 function. The settings on record: plate-bound human vitronectin; read-out: αvβ5 SPRA IC50. As for the experimental part: D. Solid Phase Receptor Assay (SPRA) for ανβ5 Function
Wells were washed 3 times with 150 μL TBS+ and then 150 μL of blocking buffer (TBS+ with 1% bovine serum albumin, Sigma A7906) was added. The plate was incubated for 1 hr at 37° C. and then washed 3× with TBS+ buffer. […] Compounds were diluted to 20 μM and then 1 μL was added to each well of the plate according to a standard template with each sample repeated in triplicate. After incubation for two hours at room temperature, the plate was washed 3× with 150 μL of TBS+ buffer. To each well, 50 μl of biotinylated anti-αν antibody (R&D Systems, BAF1219) at 0.5 μg/mL in TBS+/0.1% BSA at 0.5 μg/mL were added and the plate covered and incubated for 1 hr at room temperature. After washing the plate 3 with 150 μL of TBS+ buffer, 50 μL of streptavidin-conjugated horseradish peroxidase (R&D Systems, DY998) diluted in TBS+ blocking buffer were added to the wells and the plate incubated for 20 min at room temperature. The plate was washed 3× with TBS+ buffer followed by 50 μL of TMB substrate (Sigma T4444) added to each well in the dark and the plate incubated for 5 min at room temperature. 25 μL of 1.0 M phosphoric acid was added as a stop solution and the plates were read at 450 nm using a Spectramax plate reader.

Experiment [4] concerns the target T4, Recombinant human integrin ανβ6 (Homo sapiens, UniProt P06756+P18564).
T4 construct: purchased R&D Systems 3817-AV
Briefly: Solid Phase Receptor Assay (SPRA) for ανβ6 function. Particulars: plate-bound human LAP; read-out: αvβ6 SPRA IC50. As for the experimental part:
E. Solid Phase Receptor Assay (SPRA) for ανβ6 Function
Wells were washed 3 times with 150 μL TBS+, and then 150 μL of blocking buffer (TBS+ with 1% bovine serum albumin, Sigma A7906) was added. The plate was incubated for 1 hr at 37° C., and then washed 3× with TBS+ buffer. […] Compounds were diluted to 20 μM and then 1 μL was added to each well of the plate according to a standard template with each sample repeated in triplicate. After incubation for two hours at room temperature, the plate was washed 3× with 150 μL of TBS+ buffer. To each well, 50 μL of biotinylated anti-αν antibody (R&D Systems, BAF1219) at 0.5 μg/mL in TBS+/0.1% BSA were added and the plate was covered and incubated for 1 hr at room temperature. After washing the plate 3× with 150 μL of TBS+ buffer, 50 μL of streptavidin-conjugated horseradish peroxidase (R&D Systems, DY998) diluted in TBS+ blocking buffer were added to the wells and the plate incubated for 20 min at room temperature. The plate was washed 3× with TBS+ buffer followed by 50 μL of TMB substrate (Sigma T4444) added to each well in the dark and the plate incubated for 10 min at room temperature. 25 μL of 1.0 M phosphoric acid was added as a stop solution and the plates were read at 450 nm using a Spectramax plate reader.

The target of experiment [5] is T5, Recombinant human integrin ανβ8 (Homo sapiens, UniProt P06756+P26012).
T5 construct: purchased R&D Systems 4135-AV
Briefly: Solid Phase Receptor Assay (SPRA) for ανβ8 function. The settings on record: plate-bound human LAP; read-out: αvβ8 SPRA IC50. As for the experimental part:
F. Solid Phase Receptor Assay (SPRA) for ανβ8 Function
Wells were washed 3 times with 150 μL TBS+ and then 150 μL of blocking buffer (TBS+ with 1% bovine serum albumin, Sigma A7906) was added. The plate was incubated for 1 hr at 37° C. and then washed 3× with TBS+. […] Compounds were diluted to 20 μM and 1 μL was added to each well of the plate according to a standard template with each sample repeated in triplicate. After incubation for two hours at room temperature, the plate was washed 3× with 150 μL of TBS+. To each well, 50 μL of biotinylated anti-αν antibody (R&D Systems, BAF1219) at 1 μg/mL in TBS+/0.1% BSA were added and the plate was covered and incubated for 1 hr at room temperature. After washing the plate 3× with 150 μL. of TBS+ buffer, 50 μL of streptavidin-conjugated horseradish peroxidase (R&D Systems, DY998) diluted in TBS+ blocking buffer were added to the wells and the plate incubated for 20 min at room temperature. The plate was washed 3× with TBS+ followed by 50 μL of TMB substrate (Sigma T4444) added to each well in the dark and the plate incubated for 10 min at room temperature. 25 μL of 1.0 M phosphoric acid was added as a stop solution and the plates were read at 450 nm using a Spectramax plate reader.

The target in experiment [6] is T6, Recombinant human integrin α5β1 (Homo sapiens, UniProt P05556+P08648).
T6 construct: purchased R&D Systems 3230-A5
Briefly: Solid Phase Receptor Assay (SPRA) for α5β1 function. The settings on record: plate-bound human fibronectin. The procedure: A. Solid Phase Receptor Assay (SPRA) for α5β1 Function
Wells were washed 3 times with 150 μL TBS+ and then 150 μL of blocking buffer (TBS+ with 1% bovine serum albumin, Sigma A7906) was added. The plate was incubated for 1 hr at 37° C. and then washed 3× with TBS+ buffer. […] Compounds were diluted to 20 μM and then 1 μL was added to each well of the plate according to a standard template with each sample repeated in triplicate. After incubation for two hours at room temperature, the plate was washed 3× with 150 μL of TBS+ buffer. To each well, 50 μL of biotinylated anti-α5 antibody (R&D Systems, BAF1864) at 0.5 μg/mL in TBS+/0.1% BSA were added and the plate covered and incubated for 1 hr at room temperature. After washing the plate 3× with 150 μL of TBS+ buffer, 50 μL of streptavidin-conjugated horseradish peroxidase (R&D Systems, DY998) diluted in TBS+ blocking buffer were added to the wells and the plate incubated for 20 min at room temperature. The plate was washed 3× with TBS+ buffer followed by 50 μL of room temperature TMB substrate (Sigma, T4444) added to each well in the dark and the plate incubated for 25 min at room temperature. 25 μL of 1.0 M phosphoric acid was added as a stop solution and the plates were read at 450 nm using a Spectramax plate reader.

T4 sequence (P06756 31-992 limits assumed): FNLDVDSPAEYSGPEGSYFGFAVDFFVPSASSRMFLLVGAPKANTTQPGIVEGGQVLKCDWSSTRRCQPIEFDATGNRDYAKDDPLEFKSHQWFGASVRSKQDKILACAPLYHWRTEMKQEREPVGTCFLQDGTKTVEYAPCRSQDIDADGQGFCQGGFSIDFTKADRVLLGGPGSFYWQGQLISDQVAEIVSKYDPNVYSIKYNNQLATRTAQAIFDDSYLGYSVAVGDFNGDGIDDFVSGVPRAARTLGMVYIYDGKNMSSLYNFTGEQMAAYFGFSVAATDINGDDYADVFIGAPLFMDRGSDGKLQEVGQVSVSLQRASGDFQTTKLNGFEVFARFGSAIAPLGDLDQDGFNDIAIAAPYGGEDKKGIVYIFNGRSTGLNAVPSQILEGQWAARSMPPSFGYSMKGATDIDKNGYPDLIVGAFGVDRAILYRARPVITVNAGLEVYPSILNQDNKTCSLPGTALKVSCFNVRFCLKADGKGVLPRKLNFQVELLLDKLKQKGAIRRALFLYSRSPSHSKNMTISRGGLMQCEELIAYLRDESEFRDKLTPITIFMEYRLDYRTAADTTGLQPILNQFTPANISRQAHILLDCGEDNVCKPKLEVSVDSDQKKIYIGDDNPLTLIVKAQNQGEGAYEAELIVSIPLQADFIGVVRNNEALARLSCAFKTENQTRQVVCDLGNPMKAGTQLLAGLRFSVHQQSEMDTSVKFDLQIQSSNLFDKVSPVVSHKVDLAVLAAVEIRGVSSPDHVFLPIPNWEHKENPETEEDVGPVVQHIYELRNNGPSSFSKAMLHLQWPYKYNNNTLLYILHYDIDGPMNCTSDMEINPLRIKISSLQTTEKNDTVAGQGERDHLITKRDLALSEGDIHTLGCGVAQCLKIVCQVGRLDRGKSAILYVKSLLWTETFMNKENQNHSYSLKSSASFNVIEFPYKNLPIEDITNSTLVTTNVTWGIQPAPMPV
T4 sequence (P18564 22-707 limits assumed): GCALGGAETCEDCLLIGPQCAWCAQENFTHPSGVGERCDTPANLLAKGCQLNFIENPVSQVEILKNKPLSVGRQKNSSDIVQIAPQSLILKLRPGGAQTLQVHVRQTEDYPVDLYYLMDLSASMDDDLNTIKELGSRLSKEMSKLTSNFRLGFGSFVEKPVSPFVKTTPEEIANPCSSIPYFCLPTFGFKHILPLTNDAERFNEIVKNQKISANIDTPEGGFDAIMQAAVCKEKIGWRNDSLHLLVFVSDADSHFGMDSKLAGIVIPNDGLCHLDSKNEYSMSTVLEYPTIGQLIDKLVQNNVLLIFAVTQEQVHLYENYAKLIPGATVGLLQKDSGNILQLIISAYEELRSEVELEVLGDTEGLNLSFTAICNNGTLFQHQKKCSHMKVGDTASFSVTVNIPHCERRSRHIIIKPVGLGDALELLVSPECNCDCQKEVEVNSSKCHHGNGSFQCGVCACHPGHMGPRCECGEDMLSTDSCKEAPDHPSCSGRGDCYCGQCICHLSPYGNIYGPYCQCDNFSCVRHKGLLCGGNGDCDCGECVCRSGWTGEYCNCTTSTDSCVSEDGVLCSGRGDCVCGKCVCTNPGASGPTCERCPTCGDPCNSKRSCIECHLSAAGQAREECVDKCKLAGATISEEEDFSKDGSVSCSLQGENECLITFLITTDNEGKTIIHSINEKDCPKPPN
T5 sequence (P06756 31-992 limits assumed): as the sequence (P06756 31-992 limits assumed) above
T5 sequence (P26012 43-684 limits assumed): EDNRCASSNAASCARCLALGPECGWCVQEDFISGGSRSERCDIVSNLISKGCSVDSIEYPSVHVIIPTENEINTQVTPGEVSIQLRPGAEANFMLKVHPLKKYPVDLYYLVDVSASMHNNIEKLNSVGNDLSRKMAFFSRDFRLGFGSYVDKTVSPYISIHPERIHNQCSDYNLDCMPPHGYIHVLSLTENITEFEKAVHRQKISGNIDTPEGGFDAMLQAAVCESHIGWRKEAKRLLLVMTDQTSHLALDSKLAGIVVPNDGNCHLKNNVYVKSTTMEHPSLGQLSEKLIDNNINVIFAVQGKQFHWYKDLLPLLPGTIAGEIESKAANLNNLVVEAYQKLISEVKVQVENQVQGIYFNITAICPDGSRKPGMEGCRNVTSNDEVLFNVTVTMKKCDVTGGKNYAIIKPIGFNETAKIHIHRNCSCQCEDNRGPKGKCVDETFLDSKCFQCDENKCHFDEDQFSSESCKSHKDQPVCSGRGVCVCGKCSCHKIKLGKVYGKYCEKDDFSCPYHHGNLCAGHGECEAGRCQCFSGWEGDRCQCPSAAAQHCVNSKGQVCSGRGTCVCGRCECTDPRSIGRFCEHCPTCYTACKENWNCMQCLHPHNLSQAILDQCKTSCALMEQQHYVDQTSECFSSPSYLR
T1 sequence (P06756 31-992 limits assumed): as the sequence (P06756 31-992 limits assumed) above
T1 sequence (P05556 21-728 limits assumed): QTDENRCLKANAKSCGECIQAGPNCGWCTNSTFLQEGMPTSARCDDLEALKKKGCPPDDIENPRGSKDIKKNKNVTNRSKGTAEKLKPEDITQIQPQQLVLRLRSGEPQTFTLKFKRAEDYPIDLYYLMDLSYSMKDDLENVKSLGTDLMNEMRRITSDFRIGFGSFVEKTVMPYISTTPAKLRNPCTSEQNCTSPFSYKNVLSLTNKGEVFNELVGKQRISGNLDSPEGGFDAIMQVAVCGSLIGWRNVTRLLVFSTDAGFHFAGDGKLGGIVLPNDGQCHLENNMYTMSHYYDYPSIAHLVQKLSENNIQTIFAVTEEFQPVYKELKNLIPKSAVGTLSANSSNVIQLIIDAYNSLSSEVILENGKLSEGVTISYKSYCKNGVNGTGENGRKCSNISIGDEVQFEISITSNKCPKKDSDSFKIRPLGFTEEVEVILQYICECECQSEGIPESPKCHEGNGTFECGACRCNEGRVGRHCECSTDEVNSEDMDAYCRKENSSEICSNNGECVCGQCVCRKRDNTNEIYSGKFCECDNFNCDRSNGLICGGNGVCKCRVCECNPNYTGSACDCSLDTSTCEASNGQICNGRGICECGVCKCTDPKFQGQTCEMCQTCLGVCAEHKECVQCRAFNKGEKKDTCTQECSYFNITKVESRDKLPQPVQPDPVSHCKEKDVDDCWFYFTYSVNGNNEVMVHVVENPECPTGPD
T2 sequence (P06756 31-992 limits assumed): as the sequence (P06756 31-992 limits assumed) above
T2 sequence (P05106 27-718 limits assumed): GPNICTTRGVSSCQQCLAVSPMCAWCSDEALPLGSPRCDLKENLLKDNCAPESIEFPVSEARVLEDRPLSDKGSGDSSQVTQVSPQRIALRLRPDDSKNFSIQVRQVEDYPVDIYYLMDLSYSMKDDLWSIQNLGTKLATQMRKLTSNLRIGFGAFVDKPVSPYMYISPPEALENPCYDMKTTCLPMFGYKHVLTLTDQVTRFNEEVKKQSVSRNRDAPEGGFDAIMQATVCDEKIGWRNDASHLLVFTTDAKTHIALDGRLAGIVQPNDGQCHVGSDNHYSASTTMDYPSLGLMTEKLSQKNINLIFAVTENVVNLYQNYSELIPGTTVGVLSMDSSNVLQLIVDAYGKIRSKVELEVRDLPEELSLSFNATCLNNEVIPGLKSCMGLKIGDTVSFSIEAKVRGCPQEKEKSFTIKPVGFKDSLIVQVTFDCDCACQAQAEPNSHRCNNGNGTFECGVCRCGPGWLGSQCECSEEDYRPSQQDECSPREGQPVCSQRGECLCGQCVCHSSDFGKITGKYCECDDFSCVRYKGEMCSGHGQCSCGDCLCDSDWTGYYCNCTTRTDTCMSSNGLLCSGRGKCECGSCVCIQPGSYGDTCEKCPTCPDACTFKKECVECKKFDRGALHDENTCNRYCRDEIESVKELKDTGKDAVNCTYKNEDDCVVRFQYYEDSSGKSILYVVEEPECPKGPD
T3 sequence (P06756 31-992 limits assumed): as the sequence (P06756 31-992 limits assumed) above
T3 sequence (P18084 24-719 limits assumed): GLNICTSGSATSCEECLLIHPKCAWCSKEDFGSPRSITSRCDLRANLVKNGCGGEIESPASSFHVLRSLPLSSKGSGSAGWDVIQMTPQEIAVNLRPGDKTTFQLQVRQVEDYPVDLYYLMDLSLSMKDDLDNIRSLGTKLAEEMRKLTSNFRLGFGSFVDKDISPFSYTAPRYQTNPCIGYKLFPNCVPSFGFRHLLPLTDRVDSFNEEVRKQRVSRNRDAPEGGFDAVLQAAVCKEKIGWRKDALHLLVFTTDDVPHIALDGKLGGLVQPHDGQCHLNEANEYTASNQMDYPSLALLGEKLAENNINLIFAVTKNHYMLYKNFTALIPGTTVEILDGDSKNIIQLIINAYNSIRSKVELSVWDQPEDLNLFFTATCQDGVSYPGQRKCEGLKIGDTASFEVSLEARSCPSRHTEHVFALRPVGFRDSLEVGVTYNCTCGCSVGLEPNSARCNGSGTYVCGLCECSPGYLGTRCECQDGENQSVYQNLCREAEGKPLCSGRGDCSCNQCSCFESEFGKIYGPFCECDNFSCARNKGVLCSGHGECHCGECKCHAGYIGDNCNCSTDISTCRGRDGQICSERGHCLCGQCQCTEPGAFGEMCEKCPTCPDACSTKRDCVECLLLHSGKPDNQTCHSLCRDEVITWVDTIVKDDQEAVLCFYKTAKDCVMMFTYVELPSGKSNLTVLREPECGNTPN

For `Cn1nc(CC(CC(=O)O)c2cc(C#N)cc(C(F)(F)F)c2)cc1OCCc1ccc2c(n1)NCCC2` (stereo not drawn) [Example 12, 3-(3-cyano-5-(trifluoromethyl)phenyl)-4-(1-methyl-5-(2-(5,6,7,8-tetrahydro-1,8-naphthyridin-2-yl)ethoxy)-1H-pyrazol-3-yl)butanoic Acid], the IC50 – broadly, the concentration that gives 50% inhibition – in experiment [1] came to 4.5 nM; in experiment [2] it was 4.3 nM; in experiment [3] it was 0.1 nM; in experiment [4] it was 27 nM; in experiment [5] it was 14 nM.

Turning to `CC(C)Oc1ccc(C(C)(C)C)cc1C(CC(=O)O)Cc1cc(OCCc2ccc3c(n2)NCCC3)n(C)n1` (stereo not drawn) [Example 35, 3-(5-tert-butyl-2-isopropoxy-phenyl)-4-[1-methyl-5-[2-(5,6,7,8-tetrahydro-1,8-naphthyridin-2-yl)ethoxy]pyrazol-3-yl]butanoic Acid Trifluoroacetate], the IC50 in experiment [1] came to 7.6 nM; in experiment [4] it was 1100 nM; in experiment [5] it was 120 nM; in experiment [6], 75 nM.
